Measurements as given in PubChem BioAssay (NCI).
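Dose response: 5 concentrations. Exposure: 48 h. Format: 96-well plates. Endpoint: linear interpolation; highest concentration if not reached. GI50 = concentration required for 50% inhibition of growth. TGI is the concentration that stops growth completely.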

Key:
Assay in all cases: NCI-60 cell line screen, 48 h
UO-31 renal = test system: UO-31 renal
OVCAR-8 ovarian = test system: OVCAR-8 ovarian
HL-60(TB) leukemia = test system: HL-60(TB) leukemia
SK-MEL-2 melanoma = test system: SK-MEL-2 melanoma
OVCAR-5 ovarian = test system: OVCAR-5 ovarian
UACC-257 melanoma = test system: UACC-257 melanoma
MALME-3M melanoma = test system: MALME-3M melanoma
IGROV1 ovarian = test system: IGROV1 ovarian
EKVX NSCLC = test system: EKVX NSCLC
SNB-19 CNS = test system: SNB-19 CNS
BT-549 breast = test system: BT-549 breast
CCRF-CEM leukemia = test system: CCRF-CEM leukemia
HT29 colon = test system: HT29 colon
MDA-MB-435 = test system: MDA-MB-435
SN12C renal = test system: SN12C renal
SF-295 CNS = test system: SF-295 CNS
NCI-H460 lung = test system: NCI-H460 lung
PC-3 prostate = test system: PC-3 prostate
SF-539 CNS = test system: SF-539 CNS
M14 melanoma = test system: M14 melanoma
SK-OV-3 ovarian = test system: SK-OV-3 ovarian
UACC-62 melanoma = test system: UACC-62 melanoma
MOLT-4 leukemia = test system: MOLT-4 leukemia
U251 CNS = test system: U251 CNS
MCF7 breast = test system: MCF7 breast
DU-145 prostate = test system: DU-145 prostate
SK-MEL-5 melanoma = test system: SK-MEL-5 melanoma
RXF 393 renal = test system: RXF 393 renal
COLO 205 colon = test system: COLO 205 colon
KM12 colon = test system: KM12 colon
HCT-15 colon = test system: HCT-15 colon
HCT-116 colon = test system: HCT-116 colon
HOP-92 NSCLC = test system: HOP-92 NSCLC
SF-268 CNS = test system: SF-268 CNS
A498 renal = test system: A498 renal
HOP-62 NSCLC = test system: HOP-62 NSCLC
A549 NSCLC = test system: A549 NSCLC
MDA-MB-231 breast = test system: MDA-MB-231 breast
OVCAR-3 ovarian = test system: OVCAR-3 ovarian
K-562 leukemia = test system: K-562 leukemia
TK-10 renal = test system: TK-10 renal
NCI-H226 lung = test system: NCI-H226 lung
SW-620 colon = test system: SW-620 colon
ACHN renal = test system: ACHN renal
RPMI-8226 leukemia = test system: RPMI-8226 leukemia
NCI-H23 lung = test system: NCI-H23 lung
OVCAR-4 ovarian = test system: OVCAR-4 ovarian
T-47D breast = test system: T-47D breast
SK-MEL-28 melanoma = test system: SK-MEL-28 melanoma
LOX IMVI melanoma = test system: LOX IMVI melanoma
NCI-H522 lung = test system: NCI-H522 lung
HS 578T breast = test system: HS 578T breast
786-0 renal = test system: 786-0 renal
HCC-2998 colon = test system: HCC-2998 colon
SNB-75 CNS = test system: SNB-75 CNS
NCI/ADR-RES ovarian = test system: NCI/ADR-RES ovarian
CAKI-1 renal = test system: CAKI-1 renal

SMILES: COc1ccc(Cn2cc3c(c2-c2cc(OC)c(OC)c(OC)c2)CCc2cnoc2-3)cc1[N+](=O)[O-]
- GI50 (UO-31 renal): 1.26 µM
- TGI (UO-31 renal): > 100 µM
- GI50 (OVCAR-8 ovarian): 3.35 µM
- TGI (OVCAR-8 ovarian): > 100 µM
- GI50 (HL-60(TB) leukemia): 0.412 µM
- TGI (HL-60(TB) leukemia): 7.98 µM
- GI50 (SK-MEL-2 melanoma): 0.366 µM
- TGI (SK-MEL-2 melanoma): 10.3 µM
- GI50 (OVCAR-5 ovarian): 5.08 µM
- TGI (OVCAR-5 ovarian): > 100 µM
- GI50 (UACC-257 melanoma): 4.03 µM
- TGI (UACC-257 melanoma): > 100 µM
- GI50 (MALME-3M melanoma): 0.387 µM
- TGI (MALME-3M melanoma): > 100 µM
- GI50 (IGROV1 ovarian): 0.82 µM
- TGI (IGROV1 ovarian): 51.5 µM
- GI50 (EKVX NSCLC): 1.43 µM
- TGI (EKVX NSCLC): > 100 µM
- GI50 (SNB-19 CNS): 1.87 µM
- TGI (SNB-19 CNS): > 100 µM
- GI50 (BT-549 breast): 7.9 µM
- TGI (BT-549 breast): > 100 µM
- GI50 (CCRF-CEM leukemia): 0.788 µM
- TGI (CCRF-CEM leukemia): > 100 µM
- GI50 (HT29 colon): 0.411 µM
- TGI (HT29 colon): 2.28 µM
- GI50 (MDA-MB-435): 0.219 µM
- TGI (MDA-MB-435): 0.612 µM
- GI50 (SN12C renal): 4.11 µM
- TGI (SN12C renal): > 100 µM
- GI50 (SF-295 CNS): 0.328 µM
- TGI (SF-295 CNS): 2.09 µM
- GI50 (NCI-H460 lung): 0.721 µM
- TGI (NCI-H460 lung): > 28.8 µM
- GI50 (PC-3 prostate): 1.39 µM
- TGI (PC-3 prostate): > 100 µM
- GI50 (SF-539 CNS): 1.12 µM
- TGI (SF-539 CNS): 13.8 µM
- GI50 (M14 melanoma): 0.662 µM
- TGI (M14 melanoma): > 20.4 µM
- GI50 (SK-OV-3 ovarian): 1.08 µM
- TGI (SK-OV-3 ovarian): > 30.2 µM
- GI50 (UACC-62 melanoma): 0.404 µM
- TGI (UACC-62 melanoma): > 100 µM
- GI50 (MOLT-4 leukemia): 1.4 µM
- TGI (MOLT-4 leukemia): > 100 µM
- GI50 (U251 CNS): 1.2 µM
- TGI (U251 CNS): > 100 µM
- GI50 (MCF7 breast): 0.454 µM
- TGI (MCF7 breast): > 100 µM
- GI50 (DU-145 prostate): 1.91 µM
- TGI (DU-145 prostate): > 21.3 µM
- GI50 (SK-MEL-5 melanoma): 0.45 µM
- TGI (SK-MEL-5 melanoma): > 71.6 µM
- GI50 (RXF 393 renal): 1.02 µM
- TGI (RXF 393 renal): 6.22 µM
- GI50 (COLO 205 colon): 0.73 µM
- TGI (COLO 205 colon): 3.28 µM
- GI50 (KM12 colon): 0.583 µM
- TGI (KM12 colon): > 93.7 µM
- GI50 (HCT-15 colon): 0.573 µM
- TGI (HCT-15 colon): > 100 µM
- GI50 (HCT-116 colon): 0.587 µM
- TGI (HCT-116 colon): > 100 µM
- GI50 (HOP-92 NSCLC): 1.07 µM
- TGI (HOP-92 NSCLC): 60.6 µM
- GI50 (SF-268 CNS): 3.79 µM
- TGI (SF-268 CNS): > 100 µM
- GI50 (A498 renal): 0.617 µM
- GI50 (HOP-62 NSCLC): 2.85 µM
- TGI (HOP-62 NSCLC): > 100 µM
- GI50 (A549 NSCLC): 1 µM
- TGI (A549 NSCLC): > 100 µM
- GI50 (MDA-MB-231 breast): 2.13 µM
- TGI (MDA-MB-231 breast): > 41.2 µM
- GI50 (OVCAR-3 ovarian): 0.441 µM
- TGI (OVCAR-3 ovarian): 3.09 µM
- GI50 (K-562 leukemia): 0.358 µM
- TGI (K-562 leukemia): > 100 µM
- GI50 (TK-10 renal): 3.57 µM
- TGI (TK-10 renal): > 84.3 µM
- GI50 (NCI-H226 lung): 4.33 µM
- TGI (NCI-H226 lung): > 100 µM
- GI50 (SW-620 colon): 0.482 µM
- TGI (SW-620 colon): > 100 µM
- GI50 (ACHN renal): 2.88 µM
- TGI (ACHN renal): > 100 µM
- GI50 (RPMI-8226 leukemia): 1.39 µM
- TGI (RPMI-8226 leukemia): > 29.9 µM
- GI50 (NCI-H23 lung): 1.46 µM
- TGI (NCI-H23 lung): > 30.3 µM
- GI50 (OVCAR-4 ovarian): 3.75 µM
- TGI (OVCAR-4 ovarian): > 100 µM
- GI50 (T-47D breast): 3.58 µM
- TGI (T-47D breast): > 100 µM
- GI50 (SK-MEL-28 melanoma): 3.39 µM
- TGI (SK-MEL-28 melanoma): > 100 µM
- GI50 (LOX IMVI melanoma): 0.898 µM
- TGI (LOX IMVI melanoma): > 100 µM
- GI50 (NCI-H522 lung): 0.294 µM
- TGI (NCI-H522 lung): 1.64 µM
- GI50 (HS 578T breast): 1.13 µM
- GI50 (786-0 renal): 6.74 µM
- TGI (786-0 renal): > 43.5 µM
- GI50 (HCC-2998 colon): 1.93 µM
- TGI (HCC-2998 colon): > 31.6 µM
- GI50 (SNB-75 CNS): 0.849 µM
- GI50 (NCI/ADR-RES ovarian): 0.364 µM
- GI50 (CAKI-1 renal): 0.747 µM
- TGI (CAKI-1 renal): > 60.4 µM

SMILES: NC(=O)c1[nH]cnc1/N=N/SCC(N)C(=O)O (stereo unspecified)
- TGI (UO-31 renal): > 93.9 µM
- TGI (OVCAR-8 ovarian): > 100 µM
- TGI (HL-60(TB) leukemia): 6.66 µM
- TGI (SK-MEL-2 melanoma): > 100 µM
- TGI (OVCAR-5 ovarian): > 100 µM
- TGI (UACC-257 melanoma): > 100 µM
- TGI (MALME-3M melanoma): > 100 µM
- TGI (IGROV1 ovarian): > 100 µM
- TGI (EKVX NSCLC): > 100 µM
- TGI (SNB-19 CNS): > 100 µM
- TGI (BT-549 breast): > 100 µM
- TGI (CCRF-CEM leukemia): > 100 µM
- TGI (HT29 colon): > 100 µM
- TGI (MDA-MB-435): > 100 µM
- TGI (SN12C renal): > 58 µM
- TGI (SF-295 CNS): > 75.1 µM
- TGI (NCI-H460 lung): > 100 µM
- TGI (PC-3 prostate): > 100 µM
- TGI (SF-539 CNS): > 100 µM
- TGI (M14 melanoma): > 100 µM
- TGI (SK-OV-3 ovarian): > 100 µM
- TGI (UACC-62 melanoma): > 100 µM
- TGI (U251 CNS): > 100 µM
- TGI (MCF7 breast): > 100 µM
- TGI (DU-145 prostate): > 100 µM
- TGI (SK-MEL-5 melanoma): > 100 µM
- TGI (RXF 393 renal): > 100 µM
- TGI (COLO 205 colon): > 100 µM
- TGI (KM12 colon): > 62.5 µM
- TGI (HCT-15 colon): > 100 µM
- TGI (HCT-116 colon): > 100 µM
- TGI (HOP-92 NSCLC): > 100 µM
- TGI (SF-268 CNS): > 100 µM
- TGI (A498 renal): > 100 µM
- TGI (HOP-62 NSCLC): > 100 µM
- TGI (A549 NSCLC): > 100 µM
- TGI (MDA-MB-231 breast): > 54.9 µM
- TGI (OVCAR-3 ovarian): > 100 µM
- TGI (K-562 leukemia): > 100 µM
- TGI (TK-10 renal): > 100 µM
- TGI (NCI-H226 lung): > 100 µM
- TGI (SW-620 colon): > 100 µM
- TGI (ACHN renal): > 100 µM
- TGI (RPMI-8226 leukemia): > 100 µM
- TGI (NCI-H23 lung): > 100 µM
- TGI (OVCAR-4 ovarian): > 100 µM
- TGI (T-47D breast): > 100 µM
- TGI (SK-MEL-28 melanoma): > 100 µM
- TGI (LOX IMVI melanoma): > 100 µM
- TGI (NCI-H522 lung): > 100 µM
- TGI (HS 578T breast): > 100 µM
- TGI (786-0 renal): > 100 µM
- TGI (HCC-2998 colon): > 30.6 µM
- TGI (SNB-75 CNS): > 100 µM
- TGI (NCI/ADR-RES ovarian): > 100 µM
- TGI (CAKI-1 renal): > 100 µM
